Here are results for two compounds from patent US6972175B2, “Inhibition of Egr-1 expression by ppar-gamma agonists and related compositions and methods” (priority 2002, dated 2005).

Molecules are shown by their SMILES.

Experiment [1] in a line: Murine survival following lung ischemia/reperfusion injury. The class given is in vivo, mouse. The following applies: 1 hour after circulatory exclusion of nonischemic lung. The protocol: Murine ischemia/reperfusion model. C57BL6/J mice (male, 12–15 weeks old) purchased from Jackson Laboratories (Bar Harbor, Me.) were used in these experiments according to a protocol approved by the Institutional Animal Care and Use Committee at Columbia University, in accordance with guidelines of the American Association for the Accreditation of Laboratory Animal Care.
Troglitazone was administered to mice by oral gavage (0.1 mL/mouse) for 7 days at doses of 0, 5, and 100 mg/kg/day, prepared as a suspension in 0.5% methylcellulose solution. For control experiments, methylcellulose solution alone was used for gavage (these experiments are referred to as “vehicle” controls). The ischemia/reperfusion stress followed on day 8. […] Survival was measured 1 hour after circulatory exclusion of the nonoperated lung (by ligating the right hilum), which was performed after both the ischemic and reperfusion (3 hours) periods had elapsed. […]
Statistics. […] Survival was estimated by the Kaplan-Meier method, with differences in survival determined by log-rank analysis. Values are expressed as mean±standard error of the mean (SEM), with differences considered statistically significant when p<0.05.

Experiment [2] has as its system Egr-1 mRNA. The experiment in a line: Egr-1 mRNA levels by Northern blotting in hypoxic mononuclear phagocytes. Type of experiment: cell-based, rat. As to conditions: NR8383 cells, ligand added 6 hours before 30 minutes hypoxia; Northern blot, FIG. 1a. The protocol: Cell culture and induction of hypoxia. A rat alveolar macrophage cell line (NR8383) was obtained from the ATCC (Manassas, Va.), and cells were grown to 70% confluence in Ham's F-12K medium containing 15% heat-inactivated fetal bovine serum. Cells were made quiescent by serum starvation (0.2%, fetal bovine serum) for 24 hours. The PPAR-γ ligands were obtained from the following sources: troglitazone was provided by Sankyo Pharmaceutical Co. (Tokyo, Japan); and 15-d-PGJ2 was purchased from Cayman Chemical Co. (Ann Arbor, Mich.). The PPAR-α ligand bezafibrate was obtained from Sigma Chemical Co. (St. Louis. Mo.). These PPAR ligands were dissolved in minute quantities of DMSO (final concentration 0.005%). PPAR ligands were added 6 hours prior to induction of hypoxia. […]

Experiment [3] concerns Egr-1/DNA binding. Nature of the experiment: Electrophoretic mobility gel shift assay on nuclear extracts from NR8383 cells. The class given is cell-based, rat. The following applies: nuclear extracts of NR8383 cells 30 minutes after hypoxia; 1 or 20 μM 15-d-PGJ2, 20 μM troglitazone, 20 μM bezafibrate; FIG. 1c. As for the experimental part:
(§1) Cell culture and induction of hypoxia. A rat alveolar macrophage cell line (NR8383) was obtained from the ATCC (Manassas, Va.), and cells were grown to 70% confluence in Ham's F-12K medium containing 15% heat-inactivated fetal bovine serum. Cells were made quiescent by serum starvation (0.2%, fetal bovine serum) for 24 hours. The PPAR-γ ligands were obtained from the following sources: troglitazone was provided by Sankyo Pharmaceutical Co. (Tokyo, Japan); and 15-d-PGJ2 was purchased from Cayman Chemical Co. (Ann Arbor, Mich.). The PPAR-α ligand bezafibrate was obtained from Sigma Chemical Co. (St. Louis. Mo.). These PPAR ligands were dissolved in minute quantities of DMSO (final concentration 0.005%). PPAR ligands were added 6 hours prior to induction of hypoxia. Using an environmental chamber described previously (Yan, 1999), cells were subjected to 30 minutes hypoxia (pO2 in the medium ˜12–14 torr. This time was chosen because it has previously been shown that this is the time of maximal Egr-1 expression in hypoxic macrophages. Cells subjected to hypoxia were placed in medium pre-equilibrated with the hypoxic gas mixture just prior to placement in the environmental chamber. Thus, cultures were immersed immediately in the oxygen-deprived environment at the time of medium change, coinciding with time of placement in the chamber.
Electrophoretic mobility gel shift assay. […]

Experiment [4] relates to Egr-1 protein. The experiment in a line: Egr-1 protein expression by Western blotting in hypoxic mononuclear phagocytes. As to conditions: ligand added 6 hours before 30 minutes hypoxia; Western blot, FIG. 1b. Type of experiment: cell-based, rat. As for the experimental part: as §1
Western blotting. […]

In experiment [5] the test system is Egr-1. Nature of the experiment: Hypoxia-driven Egr-1 induction in macrophages (data not shown). The class given is cell-based. The protocol:
as §1

Take `Cc1c(C)c2c(c(C)c1O)CCC(C)(COc1ccc(CC3SC(=O)NC3=O)cc1)O2` (stereo not shown) [troglitazone]: the “survival relative to vehicle-treated mice” value in experiment [1] (vehicle 10% survival) is recorded as 4 times. Besides, the survival in experiment [1] (1 hour ischemia, 3 hours reperfusion, FIG. 4f) was 40%.
For the compound `CCCCCC=CC=C1C(=O)C=C[C@@H]1CC=CCCCC(=O)O` [15-d-PGJ2, 15-deoxy-Δ^12,14-prostaglandinJ2], the “Egr-1 mRNA levels after hypoxia” value in experiment [2] is recorded as “significantly reduced”. The “gel shift band associated with Egr-1/DNA binding” value in experiment [3] is listed as “virtually abrogated”. Moreover, in experiment [4], the “Egr-1 protein levels after hypoxia” value was “significantly inhibited”. For the same compound, in experiment [5], the “hypoxia-driven Egr-1 induction in macrophages” value is recorded as “inhibited hypoxia-induced expression of Egr-1”. Besides, in experiment [5] (macrophages, parallel study), the “potency of inhibition of hypoxia-induced Egr-1 expression compared with troglitazone” value is recorded as “equal potency as troglitazone”.
